Results on 59 compounds are retold here after ChEMBL document CHEMBL5729210, “Benzodiazepine derivatives as RSV inhibitors” (2022).

The term EC50 denotes the concentration at which the effect is half-maximal.

The structures appear in SMILES notation.

This assay in a line: RSV-A Assay: The description is Japanese.
As for `O=C(O)c1ccc(-n2cncn2)cc1N1CCOCC1`, the EC50 result is “in the range around 600 nM”.
Next, `Cn1c(N2CCOCC2)c(-c2nnc(N[C@H]3N=C(c4ccccc4)c4ccccc4NC3=O)o2)ccc1=O`: less than 400 nM.
Next, `COC(=O)c1ccc(N2CCCC2)cc1N1CCOCC1`: less than 400 nM; `O=C1Nc2ccccc2C(c2ccccc2)=NC1Nc1nnc(-c2cn(-c3ccc(F)cn3)nc2N2CCOCC2)o1` (centres undefined): less than 400 nM; `O=C1Nc2ccccc2C(c2ccccc2)=NC1Nc1nnc(-c2nccnc2N2CCOCC2)o1` (centres undefined): less than 400 nM.
Consider `C#Cc1cnc(-c2nnc(N[C@H]3N=C(c4ccccc4)c4ccccc4NC3=O)o2)c(N2CCOCC2)c1`, for which the EC50 is less than 400 nM.
Take `O=C1Nc2ccccc2C(c2ccccc2)=NC1Nc1ncc(-c2ccccc2)o1` (centres undefined): the EC50 was more than 800 nM.
Next, `O=C1Nc2ccccc2C(c2ccccc2)=NC1Nc1nc2ccc(F)cc2o1` (centres undefined): more than 800 nM; `N#Cc1cc(N2CCOCC2)c(-c2nnc(N[C@H]3N=C(c4ccccc4)c4ccccc4NC3=O)o2)s1`: less than 400 nM; `N#Cc1cnc(-c2nnc(N[C@H]3N=C(c4ccccc4)c4cccc(F)c4NC3=O)o2)c(N2CCOCC2)c1`: less than 400 nM.
Compound `COCCCc1cc(C(F)(F)F)cnc1-c1nnc(N[C@H]2N=C(c3ccccc3)c3ccccc3NC2=O)o1` returned an EC50 of more than 800 nM.
Consider `O=C1Nc2ccccc2C(c2ccccc2)=N[C@@H]1Nc1nnc(-c2oc3cc(F)ccc3c2N2CCOCC2)o1`, for which the EC50 entry was “in the range around 600 nM”.
The result for `CCOC(=O)c1cn(-c2cccnc2)nc1N1CCOCC1` reads less than 400 nM; that for `O=C1Nc2ccccc2C(c2ccccc2)=NC1Nc1nnc(Cc2ccccc2)o1` (centres undefined), more than 800 nM; that for `N#Cc1cnc(-c2nnc(N[C@H]3N=C(c4ccccc4)c4ccccc4NC3=O)o2)c(N2CC3CCC(C2)O3)c1`, less than 400 nM.
The result for `C[C@@H]1CN(c2cc(C#N)cnc2-c2nnc(N[C@H]3N=C(c4ccccc4)c4ccccc4NC3=O)o2)CCO1` reads “in the range around 600 nM”; that for `COC[C@H]1C[C@@H]1c1cc(C(F)(F)F)cnc1-c1nnc(N[C@@H]2N=C(c3ccccc3)c3ccccc3NC2=O)o1`, more than 800 nM.
For the compound `NNC(=O)c1cc(F)cnc1N1CCOCC1`, the EC50 result was “in the range around 600 nM”.
The result for `Cn1cc(-c2cc(C#N)cnc2-c2nnc(N[C@H]3N=C(c4ccccc4)c4ccccc4NC3=O)o2)ccc1=O` reads more than 800 nM; that for `CCOC(=O)c1cn(CC)nc1N1CCOCC1`, less than 400 nM; that for `COCc1ccc(-c2nnc(NC3N=C(c4ccccc4)c4ccccc4NC3=O)o2)o1` (centres undefined), more than 800 nM.
Regarding `O=C1Nc2ccccc2C(c2ccccc2)=NC1Nc1nnc(-c2ccc(N3CCOCC3)cc2Cl)o1` (centres undefined), the concentration for a half-maximal effect (EC50) is more than 800 nM.
The result for `C[C@@H]1COCCN1c1cc(C#N)ccc1-c1nnc(N[C@H]2N=C(c3ccccc3)c3ccccc3NC2=O)o1` reads less than 400 nM.
Next, `O=C1Nc2ccccc2C(c2ccccc2)=NC1Nc1nnc(-c2ccc(F)cc2)[nH]1` (centres undefined): more than 800 nM.
`CN1CCc2nc(-c3nnc(NC4N=C(c5ccccc5)c5ccccc5NC4=O)o3)sc2C1` (centres undefined) returned an EC50 of more than 800 nM.
Consider `O=C1Nc2ccccc2C(c2ccccc2)=N[C@@H]1Nc1nnc(-c2ccco2)o1`, for which the EC50 entry is “in the range around 600 nM”.
The result for `O=C1Nc2ccccc2C(c2ccccc2)=NC1Nc1ncc2ccccc2n1` (centres undefined) reads more than 800 nM; that for `CN(C)Cc1ccc(-c2nnc(NC3N=C(c4ccccc4)c4ccccc4NC3=O)o2)o1` (centres undefined), more than 800 nM.
`O=C1Nc2ccccc2C(c2ccccc2)=N[C@@H]1Nc1nnc(-c2ccc(C(F)(F)F)nc2N2C3CCC2COC3)o1`: the EC50 is more than 800 nM.
Next, `O=C1Nc2ccccc2C(c2ccccc2)=N[C@@H]1Nc1nnc(-c2nc(-c3ccncc3)sc2N2CCOCC2)o1`: less than 400 nM; `O=C1Nc2ccccc2C(c2ccccc2)=NC1Nc1nnc(-c2cccnc2N2CCCCC2)o1` (centres undefined): more than 800 nM.
Next, `O=C1Nc2ccccc2C(c2ccccc2)=N[C@@H]1Nc1nnc(-c2nc(C3(C(F)(F)F)CCC3)sc2N2CCOCC2)o1`: less than 400 nM.
Next, `O=C1Nc2ccccc2C(c2ccccc2)=N[C@@H]1Nc1nnc(-c2cc3ccccc3nc2N2CCOCC2)o1`: less than 400 nM; `O=C1Nc2ccccc2C(c2ccccc2)=N[C@@H]1Nc1nnc(-c2nc(C(F)(F)F)sc2N2CCOCC2)o1`: less than 400 nM.
As to `O=C1Nc2ccccc2C(c2ccccc2)=N[C@@H]1Nc1nnc(-c2ncsc2N2CCOCC2)o1`, the EC50 was less than 400 nM.
`O=C1Nc2ccccc2C(c2ccccc2)=N[C@@H]1Nc1nnc(-c2ccccc2N2CCOCC2)o1` showed an EC50 of less than 400 nM.
The result for `O=C1Nc2ccccc2C(c2ccccc2)=NC1Nc1nnc(-c2cccnc2N2CCC(F)CC2)o1` (centres undefined) reads more than 800 nM; that for `COC(=O)c1nc(Br)sc1N1CCOCC1`, less than 400 nM; that for `O=C1Nc2ccccc2C(c2ccccc2)=NC1Nc1nnc(-c2ccc(F)cc2)s1` (centres undefined), more than 800 nM.
`O=C1Nc2ccccc2C(c2ccccc2)=N[C@@H]1Nc1nnc(-c2nc(C(F)(F)F)sc2N2CCO[C@@H]3C[C@@H]32)o1` returned an EC50 of more than 800 nM.
The result for `O=C1Nc2ccccc2C(c2ccccc2)=N[C@@H]1Nc1nnc(-c2ccc(C(F)(F)F)nc2N2CC3CCC(C2)O3)o1` reads “in the range around 600 nM”.
Next, `CC(C)(Cc1ccccc1)c1nnc(NC2N=C(c3ccccc3)c3ccccc3NC2=O)o1` (centres undefined): more than 800 nM; `COCCc1cccn2ncc(-c3nnc(N[C@H]4N=C(c5ccccc5)c5ccccc5NC4=O)o3)c12`: more than 800 nM.
The result for `O=C1Nc2c(F)cccc2C(c2ccccc2)=NC1Nc1nnc(-c2ccc(N3CCOCC3)cc2)o1` (centres undefined) reads “in the range around 600 nM”.
`N#Cc1cccc(C2=NC(Nc3nnc(-c4ccc(F)cc4)o3)C(=O)Nc3ccccc32)c1` (centres undefined) gave an EC50 of more than 800 nM.
Compound `COC1CCN(c2ncccc2-c2nnc(NC3N=C(c4ccccc4)c4ccccc4NC3=O)o2)CC1` (centres undefined) returned an EC50 of more than 800 nM.
`O=C1Nc2ccccc2C(c2ccccc2)=NC1Nc1nnc(-c2ccnc(F)c2)o1` (centres undefined) came in with an EC50 of less than 400 nM.
`COc1ccc(-c2nnc(NC3N=C(c4ccccc4)c4ccccc4NC3=O)o2)cn1` (centres undefined): the EC50 was less than 400 nM.
Next, `Cc1cc(-c2nnc(NC3N=C(c4ccccc4)c4ccccc4NC3=O)o2)on1` (centres undefined): more than 800 nM; `N#CC1CCN(c2ncccc2-c2nnc(NC3N=C(c4ccccc4)c4ccccc4NC3=O)o2)CC1` (centres undefined): more than 800 nM; `O=C1Nc2ccccc2C(c2ccc(F)cc2)=NC1Nc1nnc(-c2ccc(F)cc2)o1` (centres undefined): more than 800 nM.
The result for `Cc1nsc(N2CCOCC2)c1-c1nnc(N[C@H]2N=C(c3ccccc3)c3ccccc3NC2=O)o1` reads “in the range around 600 nM”; that for `CCOC(=O)c1c(F)cc(F)cc1F`, more than 800 nM; that for `O=C1Nc2ccccc2C(c2ccccc2)=NC1Nc1ncc(-c2ccccc2)cn1` (centres undefined), more than 800 nM.
Next, `O=C1Nc2ccccc2C(c2ccccc2)=NC1Nc1nnc(-c2ccc(N3CCOCC3)nc2)o1` (centres undefined): less than 400 nM; `O=C1Nc2ccccc2C(c2ccccc2)=NC1Nc1nnc(C2CCC2)o1` (centres undefined): more than 800 nM; `COC(=O)c1cc(C2CC2)sc1N1CCOCC1`: less than 400 nM.
The compound `Cn1nnc(-c2ccc(-c3nnc(NC4N=C(c5ccccc5)c5ccccc5NC4=O)o3)cc2)n1` (centres undefined) yielded an EC50 of more than 800 nM.
The result for `N#Cc1ccc2nccc(-c3nnc(N[C@H]4N=C(c5ccccc5)c5ccccc5NC4=O)o3)c2c1` reads more than 800 nM.
